This is an account of results in patent US6831075B2, “Heterocyclic substituted pyrazolones” (Cephalon, Inc., priority 1999, dated 2004).

The target of this experiment is T1, recombinant human baculoviral VEGFR2 cyctoplasmic domain (Homo sapiens, UniProt P35968).
T1 construct: recombinant human baculoviral VEGFR2 cyctoplasmic domain; host or cells: baculovirus expression system
The experiment in a line: VEGFR2 kinase inhibition assay (ELISA-based, time-resolved fluorescence). The format is biochemical. To be noted: 1 uM compound; 30 μM ATP; read-out: VEGFR-2 kinase % inhibition @ 1 uM. As to the method:
Inhibition of Vascular Endothelial Growth Factor Receptor-2 Kinase Activity
Assay were performed as described for trkA kinase below. The 96-well microtiter plate (FluoroNUNC Maxisorp) was coated with 40 μg/ml recombinant human phospholipase C-γ1/glutathione S-transferase fusion protein. Inhibition studies were performed in 100 μl assay mixtures containing 50 mM HEPES, pH 7.4, 30 μM ATP, 10 mM MnCl2, 0.1% BSA, 2% DMSO, and 1 μM of test compound. The reaction was initiated by adding prephosphorylated recombinant human baculoviral VEGFR2 cyctoplasmic domain. The reaction was allowed to proceed for 15 minutes at 37° C. The detection antibody, eurpium-labeled anti-phosphotyrosine antibody (Wallac #CR04-100), was added at 1:5000 dilution in block buffer (3% BSA in TBST).

T1 sequence (P35968 786-1356 limits assumed): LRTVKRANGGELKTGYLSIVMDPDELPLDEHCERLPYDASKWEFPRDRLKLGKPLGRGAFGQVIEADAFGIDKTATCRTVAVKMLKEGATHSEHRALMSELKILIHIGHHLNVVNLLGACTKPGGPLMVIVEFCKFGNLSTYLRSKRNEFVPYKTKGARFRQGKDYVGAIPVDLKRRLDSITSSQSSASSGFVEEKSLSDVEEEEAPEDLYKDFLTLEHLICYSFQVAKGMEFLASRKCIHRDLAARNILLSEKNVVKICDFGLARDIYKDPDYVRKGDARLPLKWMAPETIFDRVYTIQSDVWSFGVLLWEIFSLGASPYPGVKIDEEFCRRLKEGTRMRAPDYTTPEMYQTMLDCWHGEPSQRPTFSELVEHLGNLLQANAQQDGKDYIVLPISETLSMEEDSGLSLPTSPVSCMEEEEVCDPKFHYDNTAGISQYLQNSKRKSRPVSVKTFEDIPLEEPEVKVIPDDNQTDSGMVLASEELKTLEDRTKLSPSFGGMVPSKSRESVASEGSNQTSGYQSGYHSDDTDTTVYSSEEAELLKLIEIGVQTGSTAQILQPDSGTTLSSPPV

What is called inhibition is how much of the control response was suppressed. As for `Cc1cc(C)c(C=C2C(=O)NN=C2c2c[nH]c3ccccc23)[nH]1` [Compound 76, 4-[(3,5-dimethylpyrrol-2-yl)methylene]-3-indol-3-yl-2-pyrazolin-5-one], the inhibition at 1 µM was 39%.

Turning to `Cc1cc(C)c(CC2C(=O)NN=C2c2c[nH]c3ccccc23)[nH]1` (centres unmarked) [Compound 77, 4-[(3,5-dimethylpyrrol-2-yl)methyl]-3-indol-3-yl-2-pyrazolin-5-one], the inhibition at 1 µM was 21%.
